# ChEMBL document CHEMBL1201862, “PubChem BioAssay data set” (2004)
# Activity calls are given as the source filed them. Rule as the data show it, for most assays here: actives have a measured EC50 and inactives only a lower limit.
# Key:
# [1] = target: T1, Apoptotic protease-activating factor 1 (Homo sapiens, UniProt O14727); format: functional
# T1 sequence (O14727 whole entry): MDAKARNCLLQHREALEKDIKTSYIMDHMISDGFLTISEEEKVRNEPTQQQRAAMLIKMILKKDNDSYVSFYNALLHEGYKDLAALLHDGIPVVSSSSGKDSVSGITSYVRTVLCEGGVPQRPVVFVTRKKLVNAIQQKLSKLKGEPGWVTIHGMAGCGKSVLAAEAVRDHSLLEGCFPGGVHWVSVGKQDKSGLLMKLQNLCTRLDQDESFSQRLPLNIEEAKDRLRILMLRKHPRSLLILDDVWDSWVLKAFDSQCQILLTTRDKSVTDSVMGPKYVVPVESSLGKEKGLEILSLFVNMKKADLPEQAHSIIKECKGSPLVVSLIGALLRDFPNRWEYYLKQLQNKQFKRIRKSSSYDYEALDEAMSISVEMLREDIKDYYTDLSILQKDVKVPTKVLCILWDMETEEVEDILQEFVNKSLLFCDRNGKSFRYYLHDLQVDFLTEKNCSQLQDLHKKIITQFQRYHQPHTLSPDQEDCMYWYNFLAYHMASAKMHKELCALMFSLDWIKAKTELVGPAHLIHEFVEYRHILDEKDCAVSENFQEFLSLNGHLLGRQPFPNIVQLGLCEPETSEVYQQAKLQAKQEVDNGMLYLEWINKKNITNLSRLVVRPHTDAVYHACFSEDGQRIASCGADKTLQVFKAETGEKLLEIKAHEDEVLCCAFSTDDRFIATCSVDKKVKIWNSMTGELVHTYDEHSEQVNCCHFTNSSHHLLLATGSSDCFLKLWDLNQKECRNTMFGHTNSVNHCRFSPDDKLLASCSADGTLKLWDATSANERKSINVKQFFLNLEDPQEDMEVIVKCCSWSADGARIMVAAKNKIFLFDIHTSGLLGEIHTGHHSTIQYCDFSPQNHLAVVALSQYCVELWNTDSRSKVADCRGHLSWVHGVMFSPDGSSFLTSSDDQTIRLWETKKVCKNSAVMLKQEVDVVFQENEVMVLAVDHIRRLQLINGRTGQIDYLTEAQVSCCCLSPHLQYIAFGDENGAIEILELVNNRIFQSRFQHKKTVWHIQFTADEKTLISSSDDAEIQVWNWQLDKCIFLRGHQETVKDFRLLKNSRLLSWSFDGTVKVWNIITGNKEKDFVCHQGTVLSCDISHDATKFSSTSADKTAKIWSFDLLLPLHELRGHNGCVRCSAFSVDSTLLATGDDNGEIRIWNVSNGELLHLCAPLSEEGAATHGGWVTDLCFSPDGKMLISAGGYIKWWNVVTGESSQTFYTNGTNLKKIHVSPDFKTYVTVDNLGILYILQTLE
# [2] = Luminescence Cell-Based Dose Confirmation HTS to Identify Activators of 5'UTR Stem-Loop Driven Alpha-Synuclein mRNA Translation in H4 Neuroglioblastoma Cells. [Related pubchem assays: 1829 (Project Summary), 1814 (Primary HTS)]; format: functional
# H4 = assay: Luminescence Cell-Based Dose Response HTS to Identify Activators of 5'UTR Stem-Loop Driven Prion Protein mRNA Translation in H4 Neuroglioblastoma Cells. [Related pubchem assays: 1829 (Project Summary), 1814 (Primary HTS)]; format: functional; details: Homo sapiens
# [3] = Trypanosoma cruzi growth suppression in host cells – NIH3T3 host cells, beta-gal luminescence, confirmation (AID 2044); format: functional, cell-based;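 also: intracellular parasites grown in NIH/3T3 mouse fibroblasts as host cells; luminescent beta-galactosidase reporter signal from transgenic T. cruzi replicating inside host cells; inhibitors lower the luminescence signal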
# Protein RecA = target: T2, Protein RecA (Mycobacterium tuberculosis, UniProt P9WHJ3); assay: Fluorescence Cell-Free Homogeneous Dose Retest to Identify Inhibitors of RecA-Intein Splicing Activity. [Related pubchem assays (depositor defined):AID2097, AID2223, AID489010, AID492950]; format: functional
# T2 sequence (P9WHJ3 whole entry): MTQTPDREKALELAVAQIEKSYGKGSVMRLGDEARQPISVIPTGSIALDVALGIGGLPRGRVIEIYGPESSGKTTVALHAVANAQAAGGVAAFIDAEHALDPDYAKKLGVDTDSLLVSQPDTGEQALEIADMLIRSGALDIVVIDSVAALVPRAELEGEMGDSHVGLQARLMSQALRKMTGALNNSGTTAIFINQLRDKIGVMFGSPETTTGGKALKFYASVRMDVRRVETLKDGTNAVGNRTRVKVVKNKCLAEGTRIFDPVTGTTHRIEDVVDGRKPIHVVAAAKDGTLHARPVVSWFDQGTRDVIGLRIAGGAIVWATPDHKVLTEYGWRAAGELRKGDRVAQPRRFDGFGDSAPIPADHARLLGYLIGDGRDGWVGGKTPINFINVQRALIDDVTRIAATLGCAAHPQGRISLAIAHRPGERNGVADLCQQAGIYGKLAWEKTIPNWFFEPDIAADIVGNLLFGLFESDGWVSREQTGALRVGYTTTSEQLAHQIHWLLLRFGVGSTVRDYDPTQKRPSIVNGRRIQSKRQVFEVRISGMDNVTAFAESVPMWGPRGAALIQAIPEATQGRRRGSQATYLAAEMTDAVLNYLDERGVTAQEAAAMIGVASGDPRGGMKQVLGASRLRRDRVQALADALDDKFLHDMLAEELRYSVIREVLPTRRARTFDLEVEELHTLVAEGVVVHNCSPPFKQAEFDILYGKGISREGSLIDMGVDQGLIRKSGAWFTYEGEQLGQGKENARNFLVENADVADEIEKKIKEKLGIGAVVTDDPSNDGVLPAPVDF
structure (smiles),measurement,setting,value
COc1ccc(Nc2ccc3c(c2)=NC2(CCCCC2)[N+]=3[O-])cc1,IC50,[1],12.2 µM (active)
same,EC50,[2],> 120 µM (not active)
same,EC50,H4,79.5 µM (active)
same,EC50,[3],3.4 µM (active)
same,EC50,Protein RecA,4.39 µM (active)
